# Source: patent US20230172204A1 (BASF SE, priority 2020, published 2023)
# Tests used:
# [1] = system: Phakopsora pachyrhizi (F129L); assay: Protective control of soybean rust on soybeans (PHAKPA P2); assay type: in vivo; settings: soybean rust F129L; for % PHAKPA (F129L) Disease level P2 at 4 ppm: protective P2, 4 ppm; for % PHAKPA (F129L) Disease level P2 at 16 ppm: protective P2, 16 ppm
# [2] = system: Phakopsora pachyrhizi (F129L); assay: Protective control of soybean rust on soybeans (PHAKPA P6); assay type: in vivo; settings: soybean rust F129L; for % PHAKPA (F129L) Disease level P6 at 4 ppm: protective P6, 4 ppm; for % PHAKPA (F129L) Disease level P6 at 16 ppm: protective P6, 16 ppm
SMILES,% PHAKPA (F129L) Disease level P2 at 4 ppm [1] [%],% PHAKPA (F129L) Disease level P2 at 16 ppm [1] [%],% PHAKPA (F129L) Disease level P6 at 4 ppm [2] [%],% PHAKPA (F129L) Disease level P6 at 16 ppm [2] [%]
CO/N=C(/C(=O)OC)c1cccc(C)c1CO/N=C(\C)c1ccc(F)cc1Cl [compound 256],50,18,70,20
CO/N=C(/C(=O)OC)c1cccc(C)c1CO/N=C(\C)c1ccc(Br)cc1C(F)(F)F [compound 257],93,35,100,57
CNC(=O)/C(=N/OC)c1cccc(C)c1CO/N=C(\C)c1ccc(Br)cc1C(F)(F)F [compound 258],32,7,73,8
CO/N=C(/C(=O)OC)c1cccc(C)c1CO/N=C(\C)c1ccc(OC(F)(F)F)cc1C [compound 259],80,17,93,40
CNC(=O)/C(=N/OC)c1cccc(C)c1CO/N=C(\C)c1ccc(F)cc1C(F)(F)F [compound 260],22,0,22,0
CNC(=O)/C(=N/OC)c1cccc(C)c1CO/N=C(\C)c1ccc(OC(F)(F)F)cc1C [compound 261],70,9,87,32
CNC(=O)/C(=N/OC)c1cccc(C)c1CO/N=C(\C)c1ccc(F)cc1Cl [compound 262],63,1,47,4
CO/N=C(/C(=O)OC)c1cccc(C)c1CO/N=C(\C)c1ccc(F)cc1C(F)(F)F [compound 263],80,15,73,22
CO/N=C(/C(=O)OC)c1cccc(C)c1CO/N=C(\C)c1ccc(F)cc1F [compound 266],67,18,90,43
CNC(=O)/C(=N/OC)c1cccc(C)c1CO/N=C(\C)c1ccc(F)cc1F [compound 267],2,0,10,4
CO/N=C(/C(=O)OC)c1cccc(C)c1CO/N=C(\C)c1ccc(OC(F)(F)F)cc1Cl [compound 268],63,6,60,17
CO/N=C(/C(=O)OC)c1cccc(C)c1CO/N=C(\C)c1ccc(OC(F)(F)F)cc1F [compound 269],5,0,18,0
CNC(=O)/C(=N/OC)c1cccc(C)c1CO/N=C(\C)c1ccc(OC(F)(F)F)cc1F [compound 270],3,0,0,1
CNC(=O)/C(=N/OC)c1cccc(C)c1CO/N=C(\C)c1ccccc1COC [compound 277],100,60,100,100
CNC(=O)/C(=N/OC)c1cccc(C)c1CO/N=C(\C)c1cc(C)ccc1C [compound 278],90,60,90,93
CO/N=C(/C(=O)OC)c1cccc(C)c1CO/N=C(\C)c1c(F)cccc1Cl [compound 283],83,30,87,22
CNC(=O)/C(=N/OC)c1cccc(C)c1CO/N=C(\C)c1c(F)cccc1Cl [compound 284],63,44,62,34
CO/N=C(/C(=O)OC)c1cccc(C)c1CO/N=C(\C)c1c(C)cccc1F [compound 285],87,50,90,35

SMILES,% PHAKPA (F129L) Disease level P2 at 4 ppm [1] [%],% PHAKPA (F129L) Disease level P2 at 16 ppm [1] [%],% PHAKPA (F129L) Disease level P6 at 4 ppm [2] [%],% PHAKPA (F129L) Disease level P6 at 16 ppm [2] [%]
C#Cc1cc(F)ccc1/C(C)=N/OCc1c(C)cccc1/C(=N\OC)C(=O)NC [compound 286],67,15,97,27
CNC(=O)/C(=N/OC)c1cccc(C)c1CO/N=C(\C)c1ccccc1C1CC1(F)F (stereo not drawn) [compound 288],87,30,97,20
CNC(=O)/C(=N/OC)c1cccc(C)c1CO/N=C(\C)c1c(Cl)cccc1C(F)(F)F [compound 290],92,14,83,21
CC/C(=N\OCc1c(C)cccc1/C(=N\OC)C(=O)NC)c1ccccc1 [compound 294],1,1,2,0
CNC(=O)/C(=N/OC)c1cccc(C)c1CO/N=C(\COC)c1ccccc1 [compound 295],2,0,11,0
CNC(=O)/C(=N/OC)c1cccc(C)c1CO/N=C(\C)c1ccccc1C1(C)CC1 [compound 296],100,40,100,83
CO/N=C(/C(=O)OC)c1cccc(C)c1CO/N=C(\C)c1cccc(C2CC2)c1 [compound 297],90,37,87,37
CNC(=O)/C(=N/OC)c1cccc(C)c1CO/N=C(\C)c1ccccc1C(F)F [compound 298],63,7,97,37
CNC(=O)/C(=N/OC)c1cccc(C)c1CO/N=C(\C)c1cccc(C2CC2)c1 [compound 299],53,13,53,22
CO/N=C(/C(=O)OC)c1cccc(C)c1CO/N=C(\C)c1cccc(C(C)(F)F)c1 [compound 302],47,4,47,3
CNC(=O)/C(=N/OC)c1cccc(C)c1CO/N=C(\C)c1cccc(C(C)(F)F)c1 [compound 303],2,0,12,0
CO/N=C(/C(=O)OC)c1cccc(C)c1CO/N=C(\C)c1ccc(Cl)cc1C(F)(F)F [compound 304],53,28,100,37
CNC(=O)/C(=N/OC)c1cccc(C)c1CO/N=C(\C)c1ccc(OC)cc1C(F)(F)F [compound 324],2,1,12,0
CNC(=O)/C(=N/OC)c1cccc(C)c1CO/N=C(\C)c1c(F)cccc1OC(F)(F)F [compound 325],24,4,22,1
CNC(=O)/C(=N/OC)c1cccc(C)c1CO/N=C(\C)c1cccc(F)c1C(F)(F)F [compound 326],25,0,30,1
CNC(=O)/C(=N/OC)c1cccc(C)c1CO/N=C(\C)c1ccc(C)cc1C(F)(F)F [compound 327],23,3,48,4
CO/N=C(/C(=O)OC)c1cccc(C)c1CO/N=C(\C)c1ccc(OC)cc1C(F)(F)F [compound 328],33,8,23,5
CNC(=O)/C(=N/OC)c1cccc(C)c1CO/N=C(\C)c1ccccc1OC1CC1 [compound 329],100,53,100,73
